Measurements as given in patent US4659707A, “Aminoacyl derivatives of 4,9-dihydro-10H-pyrido[3,2-b]thieno[3,2-e][1,4]diazepinone and of 4,9-dihydro-10H-pyrido[3,2-b]thieno[3,4-e][1,4]diazepinone, their preparation and pharmaceutical compositions containing them” (Dompe' Farmaceutici S.p.A., priority 1985, dated 1987).

Experiments:
Gastric acid secretion = Gastric acid secretion in the pylorus ligated rat; assay type: in vivo, male Sprague-Dawley rats; details: oral immediately after pylorus ligation, ligation 4 hours, read-out: Antisecretory activity ED50 (confidence limits p = 0.95)
Description: 1. Gastric acid secretion in the pylorus ligated rat The method of […]., Gruenstein M., Siplet H., Gastroenterology, 5, 43 (1945) was used, slightly modified according to the following: Male Sprague-Dawley rats weighing 150±5 g fasting since 48 hours were used. Pylorus ligation was performed for 4 hours. The products under exam were administered by the oral route immediately after the ligation.

Stress ulcer = Stress ulcer (restraint+immersion) in the rat; assay type: in vivo; details: po, 6 hours immersion at about 20° C., ulcer score 0 to 5, read-out: Antiulcer activity (stress ulcer) ED50 (confidence limits p = 0.95)
Description: 2. Stress ulcer (restraint+immersion) in the rat The method described by Takagi, K., Okabes, S., Jap. J. Pharmacol., 18, 9 (1968) has been used. The animals fasted for 48 hours were immobilized in a stress cage (drilled cylindrical tube 14.5×3.5 cm) and immersed in H2 O (at a temperature of about 20° C.) up to the xiphoid process. After 6 hours immersion the animals were sacrificed in excess ether, the stomach was drawn and opened along the great curvature. The ulcers were evaluated according to a score ranging from 0 to 5 assigning: 0.5 for each small ulcera (<3 mm) or in the presence of erosions or haemorrages 1 for each great ulcer (>3 mm). The oral treatment with the reference drug pirenzepine at the doses of 12.5--25--50 mg/kg has been carried out 1 hour before the stress.

Carbachole salivation = experiment: Charbacole salivation in the rat; assay type: in vivo, male Sprague-Dawley rats; details: 1 h, oral one hour before 1 mg/kg i.p. charbacole, read-out: Carbachole salivation ED50 (confidence limits p = 0.95)
Description: 3. Charbacole salivation in the rat The method cited by R. Turner: "Parasympatholytic Agents" in R. Turner "Screening Methods in Pharmacology" pag. 137. Academic Press. New York & London 1965, with slight changes, was used. Male Sprague-Dawley rats, average weight 150±5 g, fasted for 24 hours, were used. The salivation was induced by the intraperitoneal administration of 1 mg/kg of charbacole. The products under exam were administered orally one hour before the chollinergic stimulus.

Tremors by oxotremorine = experiment: Oxotremorine tremors in the mouse; assay type: in vivo; details: oral 60 minutes before 2 mg/kg i.p. oxotremorine, read-out: Tremors by oxotremorine ED50 (confidence limits p)
Acute toxicity = details: mouse, in vivo; Swiss mice, oral, observation 14 days
Description: The acute toxicity was determined by administering by oral route the substances under exam to Swiss mice; average weight 20±2 g. The observation period was 14 days. 10 Animals were used for each tested dose.

Row | Compound | ED50 (Gastric acid secretion) [mg/kg] | ED50 (Stress ulcer) [mg/kg] | ED50 (Carbachole salivation) [mg/kg] | ED50 (Tremors by oxotremorine) [mg/kg] | LD50 at 336 h (Acute toxicity) [mg/kg]
1 | CN1CCN(CC(=O)N2c3cscc3C(=O)Nc3cccnc32)CC1 [Example 13, 4-[(4-Methylpiperazin-1-yl)acetyl]-4,9-dihydro-10H-pyrido[3,2-b]thieno[3,4-e][1,4]-diazepin-10-one] | 12.4 | 28.8 | > 200 | > 1000 | > 1000
2 | Cc1scc2c1N(C(=O)CN1CCN(C)CC1)c1ncccc1NC2=O [Example 14, 4-[(4-Methylpiperazin-1-yl)acetyl]-3-methyl-4,9-dihydro-10H-pyrido[3,2-b]thieno[3,4-e][1,4]-diazepin-10-one] | 3.12 | 4.43 | 3.36 | > 10000 | > 500
3 | CN1CCN(CC(=O)N2c3ccsc3C(=O)Nc3cccnc32)CC1.Cl [Example 3, 4-[(4-Methylpiperazin-1-yl)acetyl]-4,9-dihydro-10H-pyrido[3,2-b]thieno[3,2-e][1,4]-diazepin-10-one hydrochloride] | 27.6 | 55.9 | > 200 | > 1000 | > 2000
